# Measured values reported in PubChem BioAssay AID1745844 (Carcinogenic Potency Database (CPDB), 2022).
# Activity calls are given as the source filed them. The rule behind the calls is not given here.
# Tested on: rodent lifetime carcinogenesis bioassay, tumor incidence TD50
# Test: carcinogenic potency in animals, long-term in vivo studies, CPDB compilation (AID 1745844)
compound,measurement,setting,value
C=CC(N)=O,TD50,"rat, strain Fischer 344, females, in drinking water, site: brain, lesion: astrocytoma, dosed 104 weeks, study length 104 weeks",38.8 mg/kg/day
same,TD50,"rat, strain Fischer 344, females, in drinking water, site: brain, lesion: astrocytoma, dosed 107 weeks, study length 107 weeks",71.8 mg/kg/day
same,TD50,"rat, strain Fischer 344, females, in drinking water, site: brain, lesion: oligodendroglioma, dosed 104 weeks, study length 104 weeks",259 mg/kg/day
same,TD50,"rat, strain Fischer 344, females, in drinking water, site: central nervous system, lesion: astrocytoma, dosed 104 weeks, study length 104 weeks",19.5 mg/kg/day
same,TD50,"rat, strain Fischer 344, females, in drinking water, site: central nervous system, lesion: glial tumors (oligodendroglioma and astrocytoma), dosed 104 weeks, study length 104 weeks",17.3 mg/kg/day
same,TD50,"rat, strain Fischer 344, females, in drinking water, site: central nervous system, lesion: glial tumors (oligodendroglioma and astrocytoma), dosed 107 weeks, study length 107 weeks",57.2 mg/kg/day
same,TD50,"rat, strain Fischer 344, females, in drinking water, site: clitoral gland, lesion: adenoma, dosed 104 weeks, study length 104 weeks",19 mg/kg/day
same,TD50,"rat, strain Fischer 344, females, in drinking water, site: mammary gland, lesion: adenocarcinoma, dosed 104 weeks, study length 104 weeks",17.6 mg/kg/day
same,TD50,"rat, strain Fischer 344, females, in drinking water, site: mammary gland, lesion: adenocarcinoma, dosed 107 weeks, study length 107 weeks",100 mg/kg/day
same,TD50,"rat, strain Fischer 344, females, in drinking water, site: mammary gland, lesion: benign tumor, dosed 104 weeks, study length 104 weeks",4.21 mg/kg/day
same,TD50,"rat, strain Fischer 344, females, in drinking water, site: mammary gland, lesion: fibroadenoma, dosed 104 weeks, study length 104 weeks",8.73 mg/kg/day
same,TD50,"rat, strain Fischer 344, females, in drinking water, site: mammary gland, lesion: fibroadenoma, dosed 107 weeks, study length 107 weeks",9.33 mg/kg/day
same,TD50,"rat, strain Fischer 344, females, in drinking water, site: mammary gland, lesion: several types, types named in the paper, dosed 107 weeks, study length 107 weeks",8.18 mg/kg/day
same,TD50,"rat, strain Fischer 344, females, in drinking water, site: mammary tissue, wider than the gland, lesion: fibroma, dosed 104 weeks, study length 104 weeks",20.9 mg/kg/day
same,TD50,"rat, strain Fischer 344, females, in drinking water, site: oral cavity, lesion: squamous-cell papilloma, dosed 104 weeks, study length 104 weeks",16.2 mg/kg/day
same,TD50,"rat, strain Fischer 344, females, in drinking water, site: spinal cord, lesion: astrocytoma, dosed 104 weeks, study length 104 weeks",40.3 mg/kg/day
same,TD50,"rat, strain Fischer 344, females, in drinking water, site: spinal cord, lesion: astrocytoma, dosed 107 weeks, study length 107 weeks",210 mg/kg/day
same,TD50,"rat, strain Fischer 344, females, in drinking water, site: thyroid follicle, lesion: several types, types named in the paper, dosed 104 weeks, study length 104 weeks",19.1 mg/kg/day
same,TD50,"rat, strain Fischer 344, females, in drinking water, site: thyroid follicle, lesion: several types, types named in the paper, dosed 107 weeks, study length 107 weeks",8.92 mg/kg/day
same,TD50,"rat, strain Fischer 344, females, in drinking water, site: thyroid gland, lesion: follicular adenocarcinoma, dosed 104 weeks, study length 104 weeks",39.5 mg/kg/day
same,TD50,"rat, strain Fischer 344, females, in drinking water, site: thyroid gland, lesion: follicular adenocarcinoma, dosed 107 weeks, study length 107 weeks",42.8 mg/kg/day
same,TD50,"rat, strain Fischer 344, females, in drinking water, site: thyroid gland, lesion: follicular-cell adenoma, dosed 107 weeks, study length 107 weeks",11.7 mg/kg/day
same,TD50,"rat, strain Fischer 344, females, in drinking water, site: uterus, lesion: adenocarcinoma, dosed 104 weeks, study length 104 weeks",26.5 mg/kg/day
same,TD50,"rat, strain Fischer 344, males, in drinking water, site: adrenal gland, lesion: pheochromocytoma, benign, dosed 104 weeks, study length 104 weeks",18.1 mg/kg/day
same,TD50,"rat, strain Fischer 344, males, in drinking water, site: brain, lesion: astrocytoma, dosed 104 weeks, study length 104 weeks",82.6 mg/kg/day
same,TD50,"rat, strain Fischer 344, males, in drinking water, site: brain, lesion: astrocytoma, dosed 107 weeks, study length 107 weeks",76.8 mg/kg/day
same,TD50,"rat, strain Fischer 344, males, in drinking water, site: brain, lesion: oligodendroglioma, dosed 104 weeks, study length 104 weeks",339 mg/kg/day
same,TD50,"rat, strain Fischer 344, males, in drinking water, site: central nervous system, lesion: astrocytoma, dosed 104 weeks, study length 104 weeks",23.5 mg/kg/day
same,TD50,"rat, strain Fischer 344, males, in drinking water, site: central nervous system, lesion: glial tumors (oligodendroglioma and astrocytoma), dosed 104 weeks, study length 104 weeks",24.8 mg/kg/day
same,TD50,"rat, strain Fischer 344, males, in drinking water, site: central nervous system, lesion: glial tumors (oligodendroglioma and astrocytoma), dosed 107 weeks, study length 107 weeks",48.9 mg/kg/day
same,TD50,"rat, strain Fischer 344, males, in drinking water, site: spinal cord, lesion: astrocytoma, dosed 104 weeks, study length 104 weeks",39.7 mg/kg/day
same,TD50,"rat, strain Fischer 344, males, in drinking water, site: spinal cord, lesion: astrocytoma, dosed 107 weeks, study length 107 weeks",82.5 mg/kg/day
same,TD50,"rat, strain Fischer 344, males, in drinking water, site: spleen, lesion: leukemia, dosed 104 weeks, study length 104 weeks",45.8 mg/kg/day
same,TD50,"rat, strain Fischer 344, males, in drinking water, site: thyroid follicle, lesion: several types, types named in the paper, dosed 107 weeks, study length 107 weeks",7.35 mg/kg/day
same,TD50,"rat, strain Fischer 344, males, in drinking water, site: thyroid gland, lesion: follicular adenocarcinoma, dosed 107 weeks, study length 107 weeks",77.2 mg/kg/day
same,TD50,"rat, strain Fischer 344, males, in drinking water, site: thyroid gland, lesion: follicular-cell adenoma, dosed 104 weeks, study length 104 weeks",13.5 mg/kg/day
same,TD50,"rat, strain Fischer 344, males, in drinking water, site: thyroid gland, lesion: follicular-cell adenoma, dosed 107 weeks, study length 107 weeks",7.49 mg/kg/day
same,TD50,"rat, strain Fischer 344, males, in drinking water, site: tunica vaginalis, lesion: mesothelioma, benign, dosed 107 weeks, study length 107 weeks",9.45 mg/kg/day
same,TD50,"rat, strain Fischer 344, males, in drinking water, site: tunica vaginalis, lesion: mesothelioma, malignant, dosed 104 weeks, study length 104 weeks",1.75 mg/kg/day
Cc1c(N(C)CS(=O)(=O)O)c(=O)n(-c2ccccc2)n1C,TD50,"mouse, strain B6C3F1, females, in drinking water, site: liver, lesion: hepatocellular carcinoma, dosed 75 weeks, study length 86 weeks",7120 mg/kg/day
same,TD50,"mouse, strain B6C3F1, females, in drinking water, site: liver, lesion: several types, types named in the paper, dosed 75 weeks, study length 86 weeks",742 mg/kg/day
same,TD50,"mouse, strain B6C3F1, males, in drinking water, site: liver, lesion: several types, types named in the paper, dosed 77 weeks, study length 86 weeks",547 mg/kg/day
same,TD50,"rat, strain F344/DuCrj, males, in drinking water, site: liver, lesion: neoplastic nodule, dosed 72 weeks, study length 83 weeks",400 mg/kg/day
same,TD50,"rat, strain Wistar, females, in feed, site: liver, lesion: adenoma, dosed 104 weeks, study length 130 weeks",33100 mg/kg/day (inactive)
same,TD50,"rat, strain Wistar, females, in feed, site: liver, lesion: angiosarcoma, dosed 104 weeks, study length 130 weeks",41400 mg/kg/day (inactive)
same,TD50,"rat, strain Wistar, females, in feed, site: liver, lesion: liver-cell carcinoma, dosed 104 weeks, study length 130 weeks",8330 mg/kg/day (inactive)
same,TD50,"rat, strain Wistar, females, in feed, site: mammary gland, lesion: adenoma, dosed 104 weeks, study length 130 weeks",328 mg/kg/day (inactive)
same,TD50,"rat, strain Wistar, males, in feed, site: liver, lesion: adenoma, dosed 104 weeks, study length 130 weeks",3340 mg/kg/day (inactive)
same,carcinogen call,"rat, strain Wistar, males, in feed, site: liver, lesion: anaplastic carcinoma, dosed 104 weeks, study length 130 weeks",negative (inactive)
NC(N)=S,carcinogen call,"rat, strain Fischer 344, males, i.p., site: liver, lesion: one or several types, types not named, dosed 60 weeks, study length 60 weeks",negative (inactive)
same,TD50,"rat, strain Hebrew University, males, in drinking water, site: any site (literature study), lesion: several types, types named in the paper, dosed 113 weeks, study length 113 weeks",27.5 mg/kg/day
same,TD50,"rat, strain Hebrew University, males, in drinking water, site: auricular region, lesion: epidermoid carcinoma, dosed 113 weeks, study length 113 weeks",93.5 mg/kg/day
same,TD50,"rat, strain Hebrew University, males, in drinking water, site: eyelid, lesion: epidermoid carcinoma, dosed 113 weeks, study length 113 weeks",93.5 mg/kg/day
same,TD50,"rat, strain Hebrew University, males, several routes, site: any site (literature study), lesion: several types, types named in the paper, dosed 95 weeks, study length 95 weeks",50.8 mg/kg/day
same,TD50,"rat, strain Hebrew University, males, several routes, site: auricular region, lesion: epidermoid carcinoma, dosed 95 weeks, study length 95 weeks",104 mg/kg/day
same,TD50,"rat, strain Hebrew University, males, several routes, site: eyelid, lesion: epidermoid carcinoma, dosed 95 weeks, study length 95 weeks",225 mg/kg/day
same,TD50,"rat, strain Osborne-Mendel, females, in feed, site: any site (literature study), lesion: benign tumor, dosed 104 weeks, study length 104 weeks",15 mg/kg/day (inactive)
same,carcinogen call,"rat, strain Osborne-Mendel, females, in feed, site: any site (literature study), lesion: malignant tumor, dosed 104 weeks, study length 104 weeks",negative (inactive)
same,TD50,"rat, strain Osborne-Mendel, females, in feed, site: any site (literature study), lesion: several types, types named in the paper, dosed 113 weeks, study length 113 weeks",16.2 mg/kg/day (inactive)
same,carcinogen call,"rat, strain Osborne-Mendel, females, in feed, site: liver, lesion: one or several types, types not named, dosed 104 weeks, study length 104 weeks",negative (inactive)
same,carcinogen call,"rat, strain Osborne-Mendel, females, in feed, site: liver, lesion: one or several types, types not named, dosed 113 weeks, study length 113 weeks",negative (inactive)
same,TD50,"rat, strain Osborne-Mendel, males, in feed, site: any site (literature study), lesion: benign tumor, dosed 104 weeks, study length 104 weeks",64.7 mg/kg/day (inactive)
same,carcinogen call,"rat, strain Osborne-Mendel, males, in feed, site: any site (literature study), lesion: malignant tumor, dosed 104 weeks, study length 104 weeks",negative (inactive)
same,TD50,"rat, strain Osborne-Mendel, males, in feed, site: any site (literature study), lesion: several types, types named in the paper, dosed 113 weeks, study length 113 weeks",46.1 mg/kg/day (inactive)
same,carcinogen call,"rat, strain Osborne-Mendel, males, in feed, site: liver, lesion: one or several types, types not named, dosed 104 weeks, study length 104 weeks",negative (inactive)
same,carcinogen call,"rat, strain Osborne-Mendel, males, in feed, site: liver, lesion: one or several types, types not named, dosed 113 weeks, study length 113 weeks",negative (inactive)
c1ccc2[nH]ccc2c1,carcinogen call,"mouse, strain Swiss albino, females, in feed, site: urinary bladder, lesion: carcinoma, dosed 70 weeks, study length 70 weeks",negative (inactive)
CCCCCCCCCCC(C)c1ccc(S(=O)(=O)O)cc1 (centres undefined),carcinogen call,"rat, strain Slc-Wistar, females, in feed, site: preputial gland, lesion: several types, types named in the paper, dosed 142 weeks, study length 148 weeks",negative (inactive)
same,carcinogen call,"rat, strain Slc-Wistar, males, in feed, site: preputial gland, lesion: several types, types named in the paper, dosed 127 weeks, study length 139 weeks",negative (inactive)
